# Source: ChEMBL document CHEMBL1201862, “PubChem BioAssay data set” (2004)
#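 Interpolation was linear, between the two tested concentrations surrounding the appropriate level; five concentrations were tested over 48 hours in 96-well plates. GI50 is the concentration that inhibits growth by half.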 The source made the active and inactive calls. No stated cut-off is given here; in the data, active = GI50 up to about 1.1 µM and inactive = higher.
# How the values were obtained:
# Experiment in all cases: growth of human tumour cells (NCI), 48 h
# CCRF-CEM = test system: CCRF-CEM
# M19-MEL = test system: M19-MEL
# SF-539 = test system: SF-539
# KM-20L2 = test system: KM-20L2
# SNB-75 = test system: SNB-75
# IGROV-1 = test system: IGROV-1
# NCI-H226 = test system: NCI-H226
# UACC-62 = test system: UACC-62
# SK-MEL-5 = test system: SK-MEL-5
# ACHN = test system: ACHN
# 786-0 = test system: 786-0
# SF-295 = test system: SF-295
# OVCAR-8 = test system: OVCAR-8
# NCI-H23 = test system: NCI-H23
# LOX IMVI = test system: LOX IMVI
# Malme-3M = test system: Malme-3M
# RPMI-8226 = test system: RPMI-8226
# HL-60 = test system: HL-60
# U-251 = test system: U-251
# DMS-114 = test system: DMS-114
# SN12C = test system: SN12C
# DLD-1 = test system: DLD-1
# OVCAR-4 = test system: OVCAR-4
# OVCAR-3 = test system: OVCAR-3
# XF498 = test system: XF498
# HOP-18 = test system: HOP-18
# NCI-H460 = test system: NCI-H460
# HCT-116 = test system: HCT-116
# HOP-62 = test system: HOP-62
# LXFL 529 = test system: LXFL 529
# KM12 = test system: KM12
# HCC 2998 = test system: HCC 2998
# K562 = test system: K562
# HCT-15 = test system: HCT-15
# M14 = test system: M14
# HT-29 = test system: HT-29
# SNB-19 = test system: SNB-19
# OVCAR-5 = test system: OVCAR-5
# UO-31 = test system: UO-31
# TK-10 = test system: TK-10
# EKVX = test system: EKVX
# SR = test system: SR
# SK-MEL-28 = test system: SK-MEL-28
# SK-OV-3 = test system: SK-OV-3
# COLO 205 = test system: COLO 205
# RXF 393 = test system: RXF 393
# A549 = test system: A549
# NCI-H522 = test system: NCI-H522
# SW-620 = test system: SW-620
# UACC-257 = test system: UACC-257
# MOLT-4 = test system: MOLT-4
# A498 = test system: A498
# DMS-273 = test system: DMS-273
# SK-MEL-2 = test system: SK-MEL-2
# SF-268 = test system: SF-268
# HOP-92 = test system: HOP-92
# CAKI-1 = test system: CAKI-1
structure (smiles),measurement,setting,value
O=S1OC2(c3ccccc3-c3ccccc32)c2ccccc21 (stereo unspecified),GI50,CCRF-CEM,72.8 µM (inactive)
same,GI50,M19-MEL,> 100 µM (inactive)
same,GI50,SF-539,> 100 µM (inactive)
same,GI50,KM-20L2,> 100 µM (inactive)
same,GI50,SNB-75,> 100 µM (inactive)
same,GI50,IGROV-1,> 100 µM (inactive)
same,GI50,NCI-H226,> 100 µM (inactive)
same,GI50,UACC-62,> 100 µM (inactive)
same,GI50,SK-MEL-5,> 100 µM (inactive)
same,GI50,ACHN,> 100 µM (inactive)
same,GI50,786-0,> 100 µM (inactive)
same,GI50,SF-295,> 100 µM (inactive)
same,GI50,OVCAR-8,> 100 µM (inactive)
same,GI50,NCI-H23,> 100 µM (inactive)
same,GI50,LOX IMVI,> 100 µM (inactive)
same,GI50,Malme-3M,> 100 µM (inactive)
same,GI50,RPMI-8226,> 100 µM (inactive)
same,GI50,HL-60,> 100 µM (inactive)
same,GI50,U-251,> 100 µM (inactive)
same,GI50,DMS-114,> 100 µM (inactive)
same,GI50,SN12C,> 100 µM (inactive)
same,GI50,DLD-1,> 100 µM (inactive)
same,GI50,OVCAR-4,> 100 µM (inactive)
same,GI50,OVCAR-3,> 100 µM (inactive)
same,GI50,XF498,> 100 µM (inactive)
same,GI50,HOP-18,> 100 µM (inactive)
same,GI50,NCI-H460,> 100 µM (inactive)
same,GI50,HCT-116,> 100 µM (inactive)
same,GI50,HOP-62,40.6 µM (inactive)
same,GI50,LXFL 529,> 100 µM (inactive)
same,GI50,KM12,> 100 µM (inactive)
same,GI50,HCC 2998,> 100 µM (inactive)
same,GI50,K562,> 100 µM (inactive)
same,GI50,HCT-15,86.3 µM
same,GI50,M14,> 100 µM (inactive)
same,GI50,HT-29,> 100 µM (inactive)
same,GI50,SNB-19,> 100 µM (inactive)
same,GI50,OVCAR-5,> 100 µM (inactive)
same,GI50,UO-31,> 100 µM (inactive)
same,GI50,TK-10,> 100 µM (inactive)
same,GI50,EKVX,> 100 µM (inactive)
same,GI50,SR,> 100 µM (inactive)
same,GI50,SK-MEL-28,> 100 µM (inactive)
same,GI50,SK-OV-3,> 100 µM (inactive)
same,GI50,COLO 205,> 100 µM (inactive)
same,GI50,RXF 393,53 µM (inactive)
same,GI50,A549,> 100 µM (inactive)
same,GI50,NCI-H522,> 100 µM (inactive)
same,GI50,SW-620,> 100 µM (inactive)
same,GI50,UACC-257,> 100 µM (inactive)
same,GI50,MOLT-4,52.4 µM (inactive)
same,GI50,A498,> 100 µM (inactive)
Cc1ccc(NCC2(/N=C/c3ccccc3)OC(CO)C(O)C2O)cc1 (stereo unspecified),GI50,CCRF-CEM,31.6 µM (inactive)
same,GI50,DMS-273,31.2 µM (inactive)
same,GI50,SF-539,41.7 µM (inactive)
same,GI50,KM-20L2,20.8 µM (inactive)
same,GI50,SNB-75,26.2 µM (inactive)
same,GI50,IGROV-1,> 100 µM (inactive)
same,GI50,NCI-H226,> 100 µM (inactive)
same,GI50,UACC-62,54.1 µM (inactive)
same,GI50,SK-MEL-5,23.3 µM (inactive)
same,GI50,ACHN,74.3 µM (inactive)
same,GI50,786-0,49.5 µM (inactive)
same,GI50,SF-295,24.3 µM (inactive)
same,GI50,OVCAR-8,> 100 µM (inactive)
same,GI50,SK-MEL-2,31 µM (inactive)
same,GI50,NCI-H23,54.1 µM (inactive)
same,GI50,Malme-3M,37.2 µM (inactive)
same,GI50,RPMI-8226,35 µM (inactive)
same,GI50,HL-60,20.5 µM (inactive)
same,GI50,SF-268,81.1 µM (inactive)
same,GI50,U-251,24.2 µM (inactive)
same,GI50,DMS-114,40 µM (inactive)
same,GI50,DLD-1,72.4 µM (inactive)
same,GI50,OVCAR-4,60.1 µM (inactive)
same,GI50,OVCAR-3,41.7 µM (inactive)
same,GI50,XF498,> 100 µM (inactive)
same,GI50,NCI-H460,32.7 µM (inactive)
same,GI50,HCT-116,36.6 µM (inactive)
same,GI50,HOP-62,12.4 µM (inactive)
same,GI50,LXFL 529,77.6 µM (inactive)
same,GI50,KM12,67.9 µM (inactive)
same,GI50,HCC 2998,91.2 µM (inactive)
same,GI50,K562,27.9 µM (inactive)
same,GI50,HCT-15,26.5 µM
same,GI50,M14,40.9 µM (inactive)
same,GI50,HT-29,35.8 µM (inactive)
same,GI50,SNB-19,> 100 µM (inactive)
same,GI50,OVCAR-5,> 100 µM (inactive)
same,GI50,UO-31,61.7 µM (inactive)
same,GI50,TK-10,> 100 µM (inactive)
same,GI50,SR,27.1 µM (inactive)
same,GI50,SK-MEL-28,62.5 µM (inactive)
same,GI50,COLO 205,42.2 µM (inactive)
same,GI50,A549,44 µM (inactive)
same,GI50,HOP-92,64 µM (inactive)
same,GI50,NCI-H522,37.5 µM (inactive)
same,GI50,SW-620,36.7 µM (inactive)
same,GI50,UACC-257,> 100 µM (inactive)
same,GI50,MOLT-4,40.1 µM (inactive)
same,GI50,CAKI-1,46.6 µM (inactive)
